Data as given in patent US7932270B2 (Cytokinetics, Inc., priority 2006, dated 2011).

biological target: T1, chicken gizzard smooth muscle myosin subfragment-1 chemically crosslinked to cardiac or skeletal actin (Gallus gallus, UniProt P10587); test: Smooth muscle myosin ATPase dose response assay (pyruvate kinase/horseradish peroxidase/pyruvate oxidase-coupled, amplex red fluorescence); type: biochemical; conditions: read-out: IC50 Arithmetic Mean
T1 construct: chicken gizzard smooth muscle myosin subfragment-1; from tissue; host or cells: chicken gizzard
T1 sequence (P02607 2-151): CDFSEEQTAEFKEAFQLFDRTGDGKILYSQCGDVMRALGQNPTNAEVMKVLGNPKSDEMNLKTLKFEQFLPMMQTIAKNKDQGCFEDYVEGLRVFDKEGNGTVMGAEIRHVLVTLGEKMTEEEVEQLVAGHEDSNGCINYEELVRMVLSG
T1 sequence (P10587 84-789): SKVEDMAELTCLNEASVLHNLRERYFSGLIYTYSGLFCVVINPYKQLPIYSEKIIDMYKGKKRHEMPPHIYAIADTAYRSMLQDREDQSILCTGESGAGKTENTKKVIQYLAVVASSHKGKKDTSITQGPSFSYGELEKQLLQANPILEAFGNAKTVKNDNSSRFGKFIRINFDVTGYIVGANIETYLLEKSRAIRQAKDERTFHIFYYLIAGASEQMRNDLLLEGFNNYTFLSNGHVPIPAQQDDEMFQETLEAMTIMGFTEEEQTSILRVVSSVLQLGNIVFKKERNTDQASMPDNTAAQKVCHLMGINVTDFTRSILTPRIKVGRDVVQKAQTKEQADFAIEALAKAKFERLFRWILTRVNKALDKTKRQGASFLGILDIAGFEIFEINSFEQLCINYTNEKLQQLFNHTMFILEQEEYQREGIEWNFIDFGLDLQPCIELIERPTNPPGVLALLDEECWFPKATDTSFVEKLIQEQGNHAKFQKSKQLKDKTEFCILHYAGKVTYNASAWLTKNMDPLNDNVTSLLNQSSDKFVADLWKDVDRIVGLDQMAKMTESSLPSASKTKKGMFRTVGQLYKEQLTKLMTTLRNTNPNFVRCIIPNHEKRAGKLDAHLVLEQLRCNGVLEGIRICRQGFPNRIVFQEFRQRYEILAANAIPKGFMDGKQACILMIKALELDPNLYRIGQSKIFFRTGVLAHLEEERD
Procedure, shortened: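 Readout is amplex red signal from coupled ATPase of actin-crosslinked gizzard myosin S1 (0.15 mM ATP, 12 mM K-PIPES, pH 7.00). IC50 is the half-maximal activity point of a four-parameter Hill fit.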

IC50 [nM]	Compound
129	NCCCNc1ncccc1CNC(=O)c1ccc(-c2cn[nH]c2)nc1NCCc1cccc(F)c1 [N-({2-[(3-aminopropyl)amino](3-pyridyl)}methyl)(2-{[2-(3-fluorophenyl)ethyl]amino}-6-pyrazol-4-yl(3-pyridyl))carboxamide]
3760	NCCCn1ccc(CNC(=O)c2ccc(-c3cc[nH]n3)nc2NCCc2cccc(F)c2)n1 [N-{[1-(3-aminopropyl)pyrazol-3-yl]methyl}(2-{[2-(3-fluorophenyl)ethyl]amino}-6-pyrazol-3-yl(3-pyridyl))carboxamide]
10500	CC1CN(C(=O)c2cc(F)c(-c3cnn(C)c3)nc2NCCc2cccc(F)c2)C1 [5-fluoro-2-{[2-(3-fluorophenyl)ethyl]amino}-6-(1-methylpyrazol-4-yl)(3-pyridyl) 3-methylazetidinyl ketone]
398	C[C@@H](N)CNC(=O)c1cc(F)c(-c2cnn(C)c2)nc1NCCc1cccc(F)c1 [N-((2R)-2-aminopropyl)(5-fluoro-2-{[2-(3-fluorophenyl)ethyl]amino}-6-(1-methylpyrazol-4-yl)(3-pyridyl))carboxamide]
326	Cc1ccccc1CCNc1nc(-c2ccccc2)ccc1C(=O)NCc1cccnc1 [(2-{[2-(2-methylphenyl)ethyl]amino}-6-phenyl(3-pyridyl))-N-(3-pyridylmethyl)carboxamide]
352	N#Cc1ccccc1-c1ccc(C(=O)N[C@@H]2CCCNC2=O)c(NCCc2cccc(F)c2)n1 [N-((3R)-2-oxo(3-piperidyl))(6-(2-cyanophenyl)-2-{[2-(3-fluorophenyl)ethyl]amino}(3-pyridyl))carboxamide]
428	[N-]=[N+]=NCc1cc(C(=O)NCc2cccnc2)c(NCCc2cccc(F)c2)nc1-c1ccccc1
3840	C[C@H](CNC(=O)c1cc(F)c(-c2cnn(C)c2)nc1NCCc1cccc(F)c1)C(=O)O [(2R)-3-[(5-fluoro-2-{[2-(3-fluorophenyl)ethyl]amino}-6-(1-methylpyrazol-4-yl)(3-pyridyl))carbonylamino]-2-methylpropanoic acid]
996	Cc1ccc(-c2ccc(C(=O)NCc3cccnc3)c(NCCc3cccc(F)c3)n2)c(C#N)c1 [(6-(2-cyano-4-methylphenyl)-2-{[2-(3-fluorophenyl)ethyl]amino}(3-pyridyl))-N-(3-pyridylmethyl)carboxamide]
1460	C[C@@H](CNC(=O)c1ccc(-c2ccccc2C#N)nc1NCCc1cccc(F)c1)NC(=O)CN
913	CC(C)C[C@H](CNC(=O)c1ccc(-c2ccccc2C#N)nc1NCCc1cccc(F)c1)NC(=O)CN [N-((1R)-1-{[(6-(2-cyanophenyl)-2-{[2-(3-fluorophenyl)ethyl]amino}(3-pyridyl))carbonylamino]methyl}-3-methylbutyl)-2-aminoacetamide]
38	N#Cc1cc(F)ccc1-c1ccc(C(=O)NCc2cccnc2)c(NCCc2cccc(F)c2)n1 [(6-(2-cyano-4-fluorophenyl)-2-{[2-(3-fluorophenyl)ethyl]amino}(3-pyridyl))-N-(3-pyridylmethyl)carboxamide]
291	N#Cc1ccccc1-c1ccc(C(=O)NCCc2ccccn2)c(NCCc2cccc(F)c2)n1 [(6-(2-cyanophenyl)-2-{[2-(3-fluorophenyl)ethyl]amino}(3-pyridyl))-N-(2-(2-pyridyl)ethyl)carboxamide]
1590	N#Cc1ccccc1-c1ccc(C(=O)NC[C@H](N)CO)c(NCCc2cccc(F)c2)n1 [N-((2S)-2-amino-3-hydroxypropyl)(6-(2-cyanophenyl)-2-{[2-(3-fluorophenyl)ethyl]amino}(3-pyridyl))carboxamide]
3370	O=C(NCc1cccnc1)c1ccc(-c2ccc(Cl)c(Cl)c2)nc1NCCc1ccccn1 [{6-(3,4-dichlorophenyl)-2-[(2-(2-pyridyl)ethyl)amino](3-pyridyl)}-N-(3-pyridylmethyl)carboxamide]
328	CNC(=O)CNC(=O)c1ccc(-c2cn[nH]c2)nc1NCCc1cccc(F)c1 [2-[(2-{[2-(3-fluorophenyl)ethyl]amino}-6-pyrazol-4-yl(3-pyridyl))carbonylamino]-N-methylacetamide]

IC50 [nM]	Compound
349	O=C(NCc1cccnc1)c1ccc(-c2ccccc2)nc1NCCc1cccc(Cl)c1 [(2-{[2-(3-chlorophenyl)ethyl]amino}-6-phenyl(3-pyridyl))-N-(3-pyridylmethyl)carboxamide]
55700	NCc1ccsc1-c1ccc(C(=O)NCc2cccnc2)c(NCCc2cccc(F)c2)n1 [(6-[3-(aminomethyl)(2-thienyl)]-2-{[2-(3-fluorophenyl)ethyl]amino}(3-pyridyl))-N-(3-pyridylmethyl)carboxamide]
5840	N#Cc1ccccc1-c1ccc(C(=O)NCC(=O)NCCCO)c(NCCc2cccc(F)c2)n1 [2-[(6-(2-cyanophenyl)-2-{[2-(3-fluorophenyl)ethyl]amino}(3-pyridyl))carbonylamino]-N-(3-hydroxypropyl)acetamide]
2680	CC(=O)N1CCCC[C@@H]1CNC(=O)c1ccc(-c2ccccc2C#N)nc1NCCc1cccc(F)c1 [N-[((2R)-1-acetyl(2-piperidyl))methyl](6-(2-cyanophenyl)-2-{[2-(3-fluorophenyl)ethyl]amino}(3-pyridyl))carboxamide]
1980	N#Cc1ccccc1-c1ccc(C(=O)NCc2ccc(F)c(F)c2)c(NCCc2cccc(F)c2)n1 [N-[(3,4-difluorophenyl)methyl](6-(2-cyanophenyl)-2-{[2-(3-fluorophenyl)ethyl]amino}(3-pyridyl))carboxamide]
32	Cn1ccc(CNC(=O)c2ccc(-c3ccccc3C#N)nc2NCCc2cccc(F)c2)n1 [(6-(2-cyanophenyl)-2-{[2-(3-fluorophenyl)ethyl]amino}(3-pyridyl))-N-[(1-methylpyrazol-3-yl)methyl]carboxamide]
13100	Cn1cc(-c2ccc(C(=O)NC[C@@H]3CNCC(=O)N3)c(NCCc3cccc(F)c3)n2)cn1 [N-[((2S)-6-oxopiperazin-2-yl)methyl](2-{[2-(3-fluorophenyl)ethyl]amino}-6-(1-methylpyrazol-4-yl)(3-pyridyl))carboxamide]
11700	N#Cc1ccccc1-c1ccc(C(=O)NCCCN2C(=O)CC[C@H]2CN)c(NCCc2cccc(F)c2)n1 [N-{3-[(5S)-5-(aminomethyl)-2-oxopyrrolidinyl]propyl}(6-(2-cyanophenyl)-2-{[2-(3-fluorophenyl)ethyl]amino}(3-pyridyl))carboxamide]
2720	CN(C)C(=NCc1cncc(CNC(=O)c2ccc(-c3ccccc3C#N)nc2NCCc2cccc(F)c2)c1)N(C)C [N-({5-[3,3-bis(dimethylamino)-2-azaprop-2-enyl](3-pyridyl)}methyl)(6-(2-cyanophenyl)-2-{[2-(3-fluorophenyl)ethyl]amino}(3-pyridyl))carboxamide]
4420	N#Cc1ccccc1-c1ccc(C(=O)N[C@@H](CCCCN)C(N)=O)c(NCCc2cccc(F)c2)n1 [N-((1S)-5-amino-1-carbamoylpentyl)(6-(2-cyanophenyl)-2-{[2-(3-fluorophenyl)ethyl]amino}(3-pyridyl))carboxamide]
100	C[C@H](CNC(=O)c1cc(F)c(-c2cnn(C)c2)nc1NCCc1cccc(F)c1)NC(=O)CCCNC(=O)OC(C)(C)C
83	N#Cc1ccccc1-c1ccc(C(=O)NC[C@H]2CCN2C(=O)[C@H](N)CO)c(NCCc2cccc(F)c2)n1 [N-{[(2R)-1-((2R)-2-amino-3-hydroxypropanoyl)azetidin-2-yl]methyl}(6-(2-cyanophenyl)-2-{[2-(3-fluorophenyl)ethyl]amino}(3-pyridyl))carboxamide]
78	Cn1cc(-c2nc(NCCc3cccc(F)c3)c(C(=O)NC[C@H]3CCCN3C(=O)[C@@H](N)CCCN)cc2F)cn1 [N-{[(2R)-1-((2S)-2,5-diaminopentanoyl)pyrrolidin-2-yl]methyl}(5-fluoro-2-{[2-(3-fluorophenyl)ethyl]amino}-6-(1-methylpyrazol-4-yl)(3-pyridyl))carboxamide]
313	Cn1cc(-c2ccc(C(=O)NCc3ccnn3CCN)c(NCCc3cccc(F)c3)n2)cn1 [N-{[1-(2-aminoethyl)pyrazol-5-yl]methyl}(2-{[2-(3-fluorophenyl)ethyl]amino}-6-(1-methylpyrazol-4-yl)(3-pyridyl))carboxamide]
318	N#Cc1ccccc1-c1ccc(C(=O)NC[C@H]2CNCC(=O)N2CCCN)c(NCCc2cccc(F)c2)n1 [N-{[(2R)-1-(3-aminopropyl)-6-oxopiperazin-2-yl]methyl}(6-(2-cyanophenyl)-2-{[2-(3-fluorophenyl)ethyl]amino}(3-pyridyl))carboxamide]

Compound	IC50 [nM]
Cc1cc(C(=O)NCc2cccnc2CNC(=O)OC(C)(C)C)c(NCCc2cccc(F)c2)nc1-c1ccccc1C#N [N-[(2-{[(tert-butoxy)carbonylamino]methyl}(3-pyridyl))methyl](6-(2-cyanophenyl)-2-{[2-(3-fluorophenyl)ethyl]amino}-5-methyl(3-pyridyl))carboxamide]	4250
Cn1cc(-c2nc(NCCc3cccc(F)c3)c(C(=O)NC[C@H]3CCC(=O)N3CCCNC(=O)OC(C)(C)C)cc2C#N)cn1 [N-[3-((5R)-5-{[(5-cyano-2-{[2-(3-fluorophenyl)ethyl]amino}-6-(1-methylpyrazol-4-yl)(3-pyridyl))carbonylamino]methyl}-2-oxopyrrolidinyl)propyl](tert-butoxy)carboxamide]	1150
Cn1cc(-c2ccc(C(=O)NC[C@H]3CCCN3C(=O)CNC(=O)OC(C)(C)C)c(NCCc3cccc(F)c3)n2)cn1 [N-[((2R)-1-{2-[(tert-butoxy)carbonylamino]acetyl}pyrrolidin-2-yl)methyl](2-{[2-(3-fluorophenyl)ethyl]amino}-6-(1-methylpyrazol-4-yl)(3-pyridyl))carboxamide]	5530
CC(C)(C)OC(=O)NCCCN1CCCC1CNC(=O)c1ccc(-c2ccccc2C#N)nc1NCCc1cccc(F)c1 (centres unmarked) [N-[(1-{3-[(tert-butoxy)carbonylamino]propyl}pyrrolidin-2-yl)methyl](6-(2-cyanophenyl)-2-{[2-(3-fluorophenyl)ethyl]amino}(3-pyridyl))carboxamide]	2080
